Here are results for three compounds from PMC9936538, “Structure–Activity Relationship of N-Ethyl-Hexedrone Analogues: Role of the α-Carbon Side-Chain Length in the Mechanism of Action, Cytotoxicity, and Behavioral Effects in Mice” (ACS Chemical Neuroscience, 2023).

pIC50, pKi: −log10 of the molar value.

The test system of one series is Swiss CD-1 mice. As to the kind of experiment: Conditioned place preference (CPP). The note with it: 10 mg/kg i.p. The series is classed as in vivo. How it is done:
Male Swiss CD-1 mice (Janvier, Le Genest, France) weighing 30–35 g (6–8 weeks old), housed in temperature-controlled conditions (22 ± 1 °C) under a 12 h light/dark cycle and with free access to food and drinking water (standard laboratory diet, Panlab SL, Barcelona, Spain), were randomly assigned to an experimental group. Efforts were made to minimize animal use and suffering.
The potential of the studied compounds to induce reward was determined using a place conditioning paradigm, as described.[6] For this experiment, an apparatus with two distinct compartments, with differences in tactile and visual cues, communicated by a central corridor, has been used. In brief, CPP was performed in three phases: preconditioning test, conditioning, and postconditioning test. During the preconditioning phase (day 0), mice were placed in the middle of the corridor and had free access to both compartments for 15 min. The time spent in each compartment was recorded and monitored using a specific tracking software (Smart 3.0 Panlab, Barcelona, Spain). […] In the alternative session, mice received a saline i.p. injection and were placed for 20 min in the other compartment. Mice in the control group received a saline injection in every session. The compartment and session in which mice received the drug were randomized. On the test day (postconditioning phase), the same conditions as in the preconditioning phase were applied. A preference score was calculated as the difference between the time spent in the drug-paired compartment in the postconditioning test minus the time spent in the preconditioning phase.

Series [1] is described as follows: Cytotoxicity in NGF-differentiated PC12 cells, WST-8 cell viability assay. The series is classed as cell-based. The conditions noted are these: rat, WST-8, 24 h exposure, mean ± SEM of 3–4 experiments, read-out: LC50 (approximated), cell viability. The protocol:
Pheochromocytoma cells (PC12) cells were cultured in collagen-coated dishes in DMEM supplemented with heat-inactivated 5% FBS, 10% horse serum, 10 mM HEPES, 2 mM glutamine, 25 UI/mL penicillin, and 25 μg/mL streptomycin (maintenance medium) and grown at 37 °C in a humidified 5% CO2 atmosphere. Cell differentiation was performed as described[54] with minor modifications. In brief, cells were seeded (250.000 cells/well) onto 96-well plates in the maintenance medium, and after 24 h, the medium was changed to a differentiation medium containing 50 ng/mL NGF. After 24 h, neurite outgrowth was already apparent.
Treatments with different concentrations of the drug in DMEM were performed 48 h after cell differentiation. 10 μL of the tested drug was added per well, in triplicate, and cells were incubated for 24 h at 37 °C in a humidified 5% CO2 atmosphere. Thereafter, the medium was removed and immediately replaced with a maintenance medium. 10 μL of the CCK-8 Cell Counting Kit, based on 2-(2-methoxy-4-nitrophenyl)-3-(4-nitrophenyl)-5-(2,4-disulfophenyl)-2H-tetrazolium, monosodium salt (WST-8), was added per well and was incubated for 2 h at 37 °C in a humidified 5% CO2 atmosphere. This method has been defined as a good alternative to the 3-(4,5-dimethylthiazol-2-yl)-2,5-diphenyltetrazoliumbromide (MTT) assay.[63] Optical density was measured at 450 nm, using a microplate reader.
(§1) For in vitro assays, data were normalized with 100% defined as the mean of the technical replicates in the control group and expressed as mean ± SEM. Nonlinear regression was used to fit the different competition curves. Data were plotted and best fitted to a sigmoidal dose–response curve from which an IC50 or LC50 value was obtained. Transporter ratios were calculated as (1/DAT IC50: 1/SERT IC50). Although IC50 values at inhibiting 5-HT uptake for some compounds tested are expressed as >100 μM for clarity purposes, DAT/SERT ratios were calculated with the original raw data. The Cheng–Prusoff equation was used to calculate Ki (affinity): Ki = EC50/(1 + [radioligand concentration/Kd]).[65] The sample size for behavioral experiments was determined using GPower software. One-way or two-way ANOVA, and subsequent Tukey’s posthoc test, conducted only if F was significant, was used to determine the effects of cathinones on cytotoxicity, HLA, OF, and CPP experiments. The α error probability was set at 0.05 (p < 0.05). The exact size group for the behavioral experiments is shown in the corresponding figure legends. All statistic calculations were carried out using GraphPad Prism (GraphPad software, San Diego, CA, USA).

For series [2], the target named is T1, hSERT (Homo sapiens, UniProt P31645).
T1 construct: expressed in transfected cells; host or cells: HEK293
As to the kind of experiment: Monoamine uptake inhibition, [3H]5-HT uptake at hSERT in transfected HEK293 cells. The series is classed as cell-based. The conditions noted are these: transfected HEK293 cells; mean ± SEM of four independent experiments; read-out: [3H]5-HT uptake at hSERT, IC50. How it is done: (§2) Human embryonic kidney cells (HEK293) stably transfected with the human DAT and SERT were used for both the uptake inhibition and transporter binding assays.[6] Cells were cultured in DMEM supplemented with heat-inactivated 10% fetal bovine serum (FBS), […], and 100 U/mL penicillin at 37 °C in a 5% CO2 humidified atmosphere. Geneticin (G418; 50 μg/mL) was added to maintain the selection process. Upon approximately 80% confluence, cells were washed with 5 mL of phosphate-buffered saline (PBS) and 1 mL of trypsin/EDTA was added. After 3 min, 9 mL of DMEM was added to stop cell trypsinization. If necessary, centrifugation was performed to pellet the cells. Cells were then resuspended, counted, and seeded onto poly-D-lysine coated (24 h/prior to the experiment) 96-well plates at a density of 0.36 million cells per well for the uptake inhibition assays.
(§3) Assays were performed as previously described.[8] On the test day, the medium was removed from the cell culture 96-well plates and immediately replaced with 200 μL of Krebs-HEPES-buffer (KHB; 10 mM HEPES, 120 mM NaCl, 3 mM KCl, 2 mM CaCl2·2H2O, 2 mM MgCl2·6H2O supplemented with 20 mM D-glucose; pH 7.3). To ensure equilibrated conditions, cells were incubated with different concentrations of the drugs in KHB at a final volume of 50 μL/well for 5 min (preincubation). The preincubation solution was removed, and cells were incubated with the tritiated compounds, 0.02 μM [^3H]MPP^+ for hDAT and 0.1 μM [^3H]5-HT for hSERT, together with various concentrations of the test drugs in KHB. The uptake incubation times were 3 min for hDAT and 1 min for hSERT. The reaction was stopped by rapid removal of the incubation solution and washout with ice-cold KHB. Cells were lysed with 1% sodium dodecyl sulfate, and lysates were subsequently transferred to vials containing scintillation fluid. Radioactivity was quantified with a beta-scintillation counter (PerkinElmer, Waltham, MA, USA). The uptake in the absence of the test drugs was normalized to 100%, and the uptake in the presence of various concentrations of cathinones was expressed as a percentage thereof. […] Four independent experiments carried out on triplicates were performed.
as §1, with “Although IC50 values at inhibiting 5-HT uptake for some compounds tested are expressed as >100 μM for clarity purposes, DAT/SERT ratios were calculated with the original raw data.” left out

In series [3] the target is T2, hDAT (Homo sapiens, UniProt Q01959).
T2 construct: expressed in transfected cells; host or cells: HEK293
As to the kind of experiment: Transporter binding, [3H]WIN 35,428 binding at hDAT (HEK293 membranes). The note with it: membranes of transfected HEK293 cells; mean ± SEM of four independent experiments; read-out: [3H]WIN 35,428 binding at hDAT, Ki. How it is done: (§4) For membrane preparation, cells were harvested from 80 to 90% confluent dishes. HEK293 cells were washed with ice-cold phosphate-buffered saline (PBS), mechanically detached from the dish using a plastic scraper, and pelleted by centrifugation (400g for 10 min at 4 °C). The pellet was resuspended in HME buffer (20 mM HEPES NaOH, 1 mM EDTA, 2 mM MgCl2; pH 7.4), subjected to two freeze–thaw cycles in liquid nitrogen and homogenized through sonication at 4 °C. Membranes were then collected by centrifugation (40,000g for 30 min at 4 °C) and resuspended in an appropriate volume of HME buffer. The different membrane preparations aliquots were kept at −80 °C. Protein concentration was determined using the Bio-Rad Protein Reagent (Bio-Rad Laboratories, Hercules, CA).
(§5) Binding assays were performed as described.[6] […] This nonspecific binding also allows subtracting from the total binding values of the binding to other components such as membrane lipids or microfiber filters. Incubation was performed for 1 h at 22 °C. Binding reactions are stopped by rapid filtration of the membranes through GF/C glass microfiber filters presoaked with 0.5% polyethyleneimine and rapid washing with ice-cold wash buffer (120 mM NaCl, 2 mM MgCl2, 10 mM Tris, and 100 μM ZnCl2 for hDAT, and […], 2 mM MgCl2, and 10 mM Tris, for hSERT). Thereafter, the filters are placed into vials, a scintillation cocktail is added and trapped radioactivity is quantified by liquid scintillation counting. Specific binding of each drug to the transporter was defined as the difference between total binding (binding buffer in absence of the drug) and nonspecific binding. For each cathinone, four independent experiments carried out on duplicates were performed.
as §1, with “Although IC50 values at inhibiting 5-HT uptake for some compounds tested are expressed as >100 μM for clarity purposes, DAT/SERT ratios were calculated with the original raw data.” left out

The target of series [4] is T2, hDAT. As to the kind of experiment: Monoamine uptake inhibition, [3H]MPP+ uptake at hDAT in transfected HEK293 cells. The series is classed as cell-based. How it is done: as §2, §3
as §1, with “Although IC50 values at inhibiting 5-HT uptake for some compounds tested are expressed as >100 μM for clarity purposes, DAT/SERT ratios were calculated with the original raw data.” left out

The target of series [5] is T1, hSERT. As to the kind of experiment: Transporter binding, [3H]imipramine binding at hSERT (HEK293 membranes). The conditions noted are these: membranes of transfected HEK293 cells; mean ± SEM of four independent experiments; read-out: [3H]imipramine binding at hSERT, Ki. The protocol: as §4, §5
as §1, with “Although IC50 values at inhibiting 5-HT uptake for some compounds tested are expressed as >100 μM for clarity purposes, DAT/SERT ratios were calculated with the original raw data.” left out

T2 sequence (Q01959 whole entry): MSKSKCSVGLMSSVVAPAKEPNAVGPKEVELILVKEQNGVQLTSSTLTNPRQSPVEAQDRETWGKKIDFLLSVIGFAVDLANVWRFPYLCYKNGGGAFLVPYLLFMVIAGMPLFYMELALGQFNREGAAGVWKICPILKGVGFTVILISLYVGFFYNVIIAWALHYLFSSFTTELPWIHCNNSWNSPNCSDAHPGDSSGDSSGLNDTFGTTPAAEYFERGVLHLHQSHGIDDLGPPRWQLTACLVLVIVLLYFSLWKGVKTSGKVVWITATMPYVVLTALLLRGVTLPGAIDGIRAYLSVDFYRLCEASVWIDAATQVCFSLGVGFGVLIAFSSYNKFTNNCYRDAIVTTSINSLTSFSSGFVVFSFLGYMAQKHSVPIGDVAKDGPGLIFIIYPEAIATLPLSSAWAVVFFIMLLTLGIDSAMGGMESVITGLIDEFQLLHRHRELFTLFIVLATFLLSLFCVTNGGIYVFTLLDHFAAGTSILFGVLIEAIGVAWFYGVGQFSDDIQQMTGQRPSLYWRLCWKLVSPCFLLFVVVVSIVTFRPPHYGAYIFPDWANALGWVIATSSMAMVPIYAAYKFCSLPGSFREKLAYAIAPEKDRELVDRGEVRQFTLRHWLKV
T1 sequence (P31645 whole entry): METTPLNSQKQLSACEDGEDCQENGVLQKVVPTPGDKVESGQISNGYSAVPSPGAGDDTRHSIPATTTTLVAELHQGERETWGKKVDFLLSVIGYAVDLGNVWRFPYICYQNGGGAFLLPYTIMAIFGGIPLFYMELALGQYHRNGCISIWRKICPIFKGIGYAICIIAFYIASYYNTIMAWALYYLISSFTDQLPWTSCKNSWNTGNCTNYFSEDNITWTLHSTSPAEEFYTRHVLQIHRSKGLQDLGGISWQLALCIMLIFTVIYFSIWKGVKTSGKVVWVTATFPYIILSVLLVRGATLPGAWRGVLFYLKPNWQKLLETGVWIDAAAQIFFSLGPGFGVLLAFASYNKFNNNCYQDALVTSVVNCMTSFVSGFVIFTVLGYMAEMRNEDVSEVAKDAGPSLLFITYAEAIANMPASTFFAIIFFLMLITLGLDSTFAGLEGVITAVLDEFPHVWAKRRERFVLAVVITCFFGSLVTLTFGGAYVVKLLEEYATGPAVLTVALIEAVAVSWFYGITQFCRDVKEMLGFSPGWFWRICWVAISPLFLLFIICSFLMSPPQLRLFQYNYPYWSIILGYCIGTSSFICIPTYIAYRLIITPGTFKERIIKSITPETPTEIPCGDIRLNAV

With `COC(=O)[C@H]1[C@@H](OC(=O)c2ccccc2)C[C@@H]2CC[C@H]1N2C` [Cocaine, reference compound], in the series with Swiss CD-1 mice, the “CPP rewarding effect vs saline” value was “induced rewarding effects”.

On to `CN[C@@H](C)Cc1ccccc1` [Meth, methamphetamine, reference compound], for which the CC50 at 24 h in series [1] turned out to be 8730 µM.

For `CCCC(C(=O)c1ccccc1)N1CCCC1` (stereo not drawn) [α-PVP, alpha-pyrrolidinovalerophenone, reference compound], the “CPP rewarding effect vs saline” value in the series on Swiss CD-1 mice is given as “induced rewarding effects”. The pIC50 was less than 4.00 on hSERT [2] and 6.91 at hDAT [4] (transfected HEK293 cells, mean ± SEM of four independent experiments, read-out: [3H]MPP+ uptake at hDAT, IC50). Moreover, the figures for the pKi on hDAT [3] and at hSERT [5] were 7.72 and less than 4.00, respectively. Moreover, the hDAT/hSERT inhibition ratio at hDAT [4] (1/DAT IC50:1/SERT IC50, calculated with the original raw data) is 3222.
